Reference: PMC2792720, “Binding of NIR-conPK and NIR-6T to Astrocytomas and Microglial Cells: Evidence for a Protein Related to TSPO” (PLoS ONE, 2009)

Target: T1, TSPO (Mus musculus, UniProt P50637)
T1 construct: mitochondrial-enriched membranes from DBT cells were prepared by lysing cells with ice-cold homogenization buffer; endogenous in cells; host or cells: DBT mouse astrocytoma cells (mitochondrial-enriched membranes / homogenates), untreated or cytokine-treated
Experiment: Filtration radioligand binding assay, [^3H]-PK 11195 binding to DBT cell homogenates
Design: Bmax: unit not given here
Description: Enriched membranes were prepared according to [28]. Briefly, mitochondrial-enriched membranes from DBT cells were prepared by lysing cells with ice-cold homogenization buffer (50 mM Tris, 1 mM EDTA and 3 mM MgCl2), followed by dounce homogenization (five gentle strokes). Homogenates were centrifuged (40,000×g, 15 min, 4°C) and cell pellet resuspended in 0.5 ml homogenization buffer, re-homogenized by dounce (five gentle strokes while on ice) and centrifuged again (40,000×g, 15 min, 4°C). Cell pellets were stored at −80°C until further use. Radioligand binding assays were performed in silanized glass test tubes (Kimble Glass Inc.). The following components were added: 50 µl of non-radiolabeled DAA1106 or PK 11195, 50 µl of [N-methyl-^3H]-PK 11195 (PerkinElmer, Boston MA; 250 µCi, 84.8 Ci/mmol) and 100 µl of protein (50 µg, which started the incubation) for a total volume of 200 µl in binding buffer (50 mM Tris, 1 mM EDTA, 3 mM MgCl2 and 0.1% BSA), all of which was placed in a water bath (30°C) with mild agitation for 1 hr. Incubation was stopped by rapid filtration and rinsing with ice-cold binding buffer, using the Brandel harvester (Gaithersburg, MD) and Whatman GFB filter paper (Brandel, Gaithersburg MD). Filters were then transferred to 7 ml glass scintillation vials (VWR, West Chester PA). Five ml of Ecoscint XR scintillation fluid (National Diagnostics, Atlanta, GA) was added, followed by 10 sec vortexing and ∼18 hrs incubation at room temperature prior to determining the radioactivity with a scintillation counter (PerkinElmer, Boston MA).
Data are expressed as n = number of determinations (three per independent experiment). Statistical analysis, Kd and Ki values were calculated using non-linear regression with a one binding site hyperbola, where X is the concentration of the ligand, Y is specific binding and Bmax and Kd are determined using this equation: Y = Bmax X/Kd+X calculated by GraphPad Prism 4.

Question: For `COc1ccc(OC)c(CN(C(C)=O)c2cc(F)ccc2Oc2ccccc2)c1` [DAA1106], which Ki (DBT cell homogenates, read-out: Ki, competition for [^3H]-PK 11195 binding) is on record?
Answer: The Ki was 0.2 nM.

Question: `CCC(C)N(C)C(=O)c1cc2ccccc2c(-c2ccccc2Cl)n1` (centres unmarked) [PK 11195] was tested. Which EC50 (DBT cell homogenates, read-out: EC50, competition for [^3H]-PK 11195 binding) did it give?
Answer: The EC50 was 93 nM.

Question: Which “amount of TSPO detected with [^3H]-PK 11195 (Bmax)” value (DBT cell homogenates, untreated cells) does the source give for `[3H]CN(C(=O)c1cc2ccccc2c(-c2ccccc2Cl)n1)C(C)CC` (centres unmarked) [[^3H]-PK 11195, [N-methyl-^3H]-PK 11195] here?
Answer: The value was 14 pmol of TSPO per gram of protein.

Question: And the Bmax (homogenates of DBT cells treated with IFNγ (100 Ui/ml), 18–24 hrs)?
Answer: The Bmax was 17.0+/−2.6.

Question: And the Bmax (homogenates of DBT cells treated with IFNγ+TNFα, 18–24 hrs)?
Answer: Its Bmax is 17.6+/−2.4.

Question: What about the Bmax (homogenates of DBT cells treated with TGFβ2 (1 ng/ml), 18–24 hrs) of the same molecule?
Answer: Its Bmax is 22.1+/−4.7.

Question: And the Bmax (homogenates of DBT cells treated with TNFα (5 ng/ml), 18–24 hrs)?
Answer: Its Bmax is 17.4+/−2.9.

Question: What about the Bmax (homogenates of DBT cells, Control (vehicle, 18–24 hrs)) of the same molecule?
Answer: The Bmax was 14.0+/−1.1.
